Laboratory results reported in patent US20150329505A1, “A FLUORESCENT COMPOSITION FOR USE IN MARKING OBJECTS, SUCH AS FLOWERS” (BIOCONST PTY LTD, priority 2012, published 2015).
Counter-ions that a name gives are not always drawn. Like-named read-outs stand apart in the source and are kept apart here. Each block holds one compound with its values, some of them ahead of it.

Legend:
flowers [1] = assay: Effect of sprayed solutions on wilting and vase life of flowers
Experimental: (§2) The above solutions were prepared by adding the fluorophore to tap water, in order to test the properties of the fluorophores in a non-sterilised, non-purified aqueous solution. The solutions were placed into a spray device for application to the surface of the relevant plants.
(§3) Solutions were sprayed onto chrysanthemums and roses and allowed to dry overnight at room temperature.

flowers [2] = conditions: in vivo
Experimental: as §2, §3

[3] = Fluorescence emitted by sprayed flowers when excited by UV light; conditions: 0.1% pyranine, 0.5% sugar, 0.1% sodium bicarbonate, pH 7.72, dried overnight, then 1 mM, 1.5 mM and 2 mM HCl
[4] = Autoclaving of fluorophore solutions; type: physicochemical; conditions: 0.5% (w/v) of the sugar, 0.1% pyranine, 0.1% sodium bicarbonate, autoclaved at 121° C.
Experimental: Fluorophore solution containing sugar caused the increase in growth of bacteria and fungus.
Fluorophore solution was prepared containing 0.1% (w/v) pyranine, 0.5% (w/v) sucrose, 0.1% (w/v) sodium bicarbonate. A similar solution was prepared with the same concentration of fructose. A small quantity of both the solutions prepared was kept aside for future use. Both the solutions were autoclaved at 121° C. in an Atherton Squirrel autoclave. This was then allowed to cool to room temperature and sprayed on flowers. Solutions which were kept aside previously (and which were not auto-claved) were also sprayed onto flowers. A negative control with no spray was also used to monitor vase life.

chrysanthemum flower = assay: Uptake of fluorophore by cut flowers; type: in vivo; conditions: cut stems in 0.1% (w/v) pyranine, 0.5% (w/v) sucrose overnight
Experimental: (§1) Freshly cut stems of flowers (roses and chrysanthemums) were prepared and the ends of the stems placed in a solution of 0.1% (w/v) pyranine, 0.5% (w/v) sucrose. The cut end of the flowers was left in the solution overnight and uptake of the fluorophore viewed under UVA light.

rose flower = assay: Uptake of fluorophore by cut flowers; type: in vivo; conditions: cut stems in 0.1% (w/v) pyranine, 0.5% (w/v) sucrose overnight
Experimental: as §1

[5] = Effect of time of UV exposure on fluorescence; type: physicochemical; conditions: 0.1% (w/v) sprayed on flowers, 6 hours, UV torch 50,000 μW/cm2
Experimental: The effect of long term exposure of UV light was tested on flowers sprayed with fluorophore
Flowers were sprayed with 0.1% (w/v) pyranine solution. The flowers were allowed to dry overnight. A UV torch Optimax™ 365, having an intensity of 50,000 μW/cm2 was shone on the sprayed flowers.

SMILES: O=C([O-])c1ccccc1-c1c2cc(Br)c(=O)c(Br)c-2oc2c(Br)c([O-])c(Br)cc12.[Na+].[Na+] [Eosin Y, reference compound]
wilting of flowers and vase life (flowers [1]; 0.5% (w/v) in tap water, sprayed onto chrysanthemums and roses, dried overnight): caused wilting of flowers and reduced vase life

SMILES: O=C1OC2(c3ccc(O)cc3Oc3cc(O)ccc32)c2ccccc21 [Fluorescein, reference compound]
wilting of flowers and vase life (flowers [2]): caused wilting of flowers and reduced vase life

change of fluorescence colour after acidic spray [3]: no change in colour to fluorescent blue
SMILES: Cl [HCl]

appearance of the solution after autoclaving [4]: dark brown
SMILES: O=C(CO)[C@@H](O)[C@H](O)[C@H](O)CO [fructose]

SMILES: COC(=O)c1ccc(O)cc1 [methylparaben]
wilting and vase life (flowers [2]): caused wilting of the flowers and reduced the vase-life of the flower

SMILES: O=S(=O)([O-])c1cc(O)c2ccc3c(S(=O)(=O)[O-])cc(S(=O)(=O)[O-])c4ccc1c2c34.[Na+].[Na+].[Na+] [pyranine, 8-Hydroxypyrene-1,3,6-trisulfonic acid trisodium salt]
uptake of the fluorophore viewed under UVA light (chrysanthemum flower): The veins in the petals of the flower demonstrate fluorescence
uptake of the fluorophore viewed under UVA light (rose flower): The veins in the petals of the flower demonstrate fluorescence
change of fluorescence on continuous UV exposure [5]: no visible change in the colour of fluorescence
vase life of flower (flowers [1]; 0.05% (w/v) in tap water, sprayed onto chrysanthemums and roses): did not affect the vase life of flower
vase life (flowers [1]; 0.05% to 0.5% (w/v) in tap water): did not affect vase life

SMILES: O=C([O-])O.[Na+] [sodium bicarbonate]
vase life (flowers [2]): did not affect the vase-life of the flower

appearance of the solution after autoclaving [4]: fluorescent green
SMILES: OC[C@H]1O[C@@](CO)(O[C@H]2O[C@H](CO)[C@@H](O)[C@H](O)[C@H]2O)[C@@H](O)[C@@H]1O [sucrose]
